The values below come from paper PMC4890880 (ACS infectious diseases, 2016).

For orientation: CC50 means the concentration at which the toxic effect on the cells reaches its halfway point. A lower CC50 goes with greater toxicity to the cells. As a reminder, the inhibition is the relative decrease from the control value, in per cent.

Read-outs that look alike come from different tables or passages of the source.

For data set [1], the system named is HepG2-A16-CD81EGFP cells.
For data set [2], the system named is Plasmodium berghei (Pb-Luc) exoerythrocytic-stage parasites.
The subject of data set [3] is P. falciparum Dd2 erythrocytic stage. Put plainly: Dd2 erythrocytic-stage assay (SYBR Green) for DOS compounds. The note with it: for IC50: read-out: Erythrocytic-stage (Pf Dd2) IC50, Figure 4b.
The target of data set [4] is T1, Plasmodium DHODH enzyme (Plasmodium falciparum, UniProt Q08210).
T1 sequence (Q08210 24-569): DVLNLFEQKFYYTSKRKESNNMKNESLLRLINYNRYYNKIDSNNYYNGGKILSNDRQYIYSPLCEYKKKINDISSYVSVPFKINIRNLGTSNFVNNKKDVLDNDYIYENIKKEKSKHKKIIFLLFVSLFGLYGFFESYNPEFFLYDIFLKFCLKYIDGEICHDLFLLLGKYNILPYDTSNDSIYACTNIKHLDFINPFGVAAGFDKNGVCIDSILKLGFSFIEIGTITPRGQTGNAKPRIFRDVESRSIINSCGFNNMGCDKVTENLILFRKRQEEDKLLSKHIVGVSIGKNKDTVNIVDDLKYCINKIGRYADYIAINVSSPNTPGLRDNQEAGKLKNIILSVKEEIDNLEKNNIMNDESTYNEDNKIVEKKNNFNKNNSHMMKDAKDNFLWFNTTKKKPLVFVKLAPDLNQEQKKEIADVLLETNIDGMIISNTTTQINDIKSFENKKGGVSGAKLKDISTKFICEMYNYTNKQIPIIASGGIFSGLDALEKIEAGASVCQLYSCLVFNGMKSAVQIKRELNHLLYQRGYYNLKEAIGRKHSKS
Put plainly: DHODH assay. As to conditions: data not shown.

Data set [5] concerns HepG2-A16-CD81EGFP cells. Put plainly: cells. As to conditions: Homo sapiens; for IC50: HepG2, read-out: Tox IC50.
The conditions of data set [6]: only compound of the set tested with exposure; cited from earlier work.
Data set [7] relates to Plasmodium cynomolgi exoerythrocytic-stage small (hypnozoites) and large (liver stage schizonts) parasites. The data set is described as follows: P. cynomolgi liver assay in primary hepatocytes. The note with it: for inhibition at 0.1 µM / inhibition at 1 µM / inhibition at 10 µM: Plasmodium cynomolgi, Hepatocyte.
Data set [8] deals with Plasmodium berghei (Pb-Luc) exoerythrocytic-stage parasites. The data set is described as follows: microbe, parasite or virus in culture. As to conditions: for IC50: read-out: PbLuc IC50, dose response, 1/3 dilutions, max conc. 10 or 50 uM, unit inferred.
Data set [9] concerns Pb-Luc exoerythrocytic-stage parasites in Huh7.5.1 cells. Put plainly: Pb-Luc time of action assay (modified 384-well luciferase assay). As to conditions: Plasmodium berghei.
Data set [10] relates to Huh7.5.1 cells. Put plainly: Cytotoxicity in Huh7.5.1 cells (Figure S4). The note with it: at 10 μM.
Data set [11] concerns P. falciparum 3D7 parasites. The data set is described as follows: Asexual erythrocytic-stage SYBR Green I proliferation assay, 1536-well. It counts as cell-based, Plasmodium falciparum. The note with it: Plasmodium falciparum, 3D7, read-out: erythrocytic-stage P. falciparum IC50, values reported in Table S1, Additional File 1.
Data set [12] relates to P. berghei expressing GFP (Pb-GFP) in Huh7.5.1 cells. Put plainly: Flow cytometry assay of traversal, invasion, EEF frequency and EEF development. It counts as cell-based, Plasmodium berghei. The note with it: 2 hours post infection; 1 μM.
For data set [13], the target named is QuantiLum Recombinant Luciferase (Photinus pyralis, UniProt P08659). Put plainly: Bioluminescence quantification of compound luciferase inhibition.
Sequence of QuantiLum Recombinant Luciferase (P08659 whole entry): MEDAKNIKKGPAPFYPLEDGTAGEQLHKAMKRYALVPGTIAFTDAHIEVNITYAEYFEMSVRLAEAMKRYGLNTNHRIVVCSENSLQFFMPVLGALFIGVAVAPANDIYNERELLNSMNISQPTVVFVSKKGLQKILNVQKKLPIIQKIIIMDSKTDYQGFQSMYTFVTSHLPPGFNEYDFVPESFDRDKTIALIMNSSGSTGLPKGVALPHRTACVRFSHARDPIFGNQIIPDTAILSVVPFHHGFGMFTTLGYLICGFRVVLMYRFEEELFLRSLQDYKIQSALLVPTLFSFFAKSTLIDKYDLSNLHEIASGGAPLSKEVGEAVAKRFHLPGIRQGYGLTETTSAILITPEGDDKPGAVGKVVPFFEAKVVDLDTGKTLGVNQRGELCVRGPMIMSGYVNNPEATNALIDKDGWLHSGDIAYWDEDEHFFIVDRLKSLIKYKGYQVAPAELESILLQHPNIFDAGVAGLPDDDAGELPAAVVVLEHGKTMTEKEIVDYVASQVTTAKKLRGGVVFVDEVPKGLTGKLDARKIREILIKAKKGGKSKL
[14] abbreviates: read-out: Exoerythrocytic-stage Pb-Luc IC50, Figure 4b, first assay.
The mark [15] stands for this setting: read-out: Exoerythrocytic-stage Pb-Luc IC50, Figure 4b, second assay (value in parentheses).
Where [16] appears, read: HepG2, read-out: HepG2 Tox% @ 50 uM rep1.
[17] abbreviates: read-out: % inhibition normalized to untreated control, Large.
Setting [18] is: read-out: % inhibition normalized to untreated control, Small.
[19] abbreviates: read-out: Inhibition% @ 50 uM rep1.
The mark [20] stands for this setting: read-out: Inhibition% @ 50 uM rep2.

`CS(=O)(=O)N1[C@H](C#N)[C@H](c2ccc(C#Cc3cccc(F)c3)cc2)[C@H]1CO` [BRD0326] displayed a cytotoxic concentration (CC50) in data set [1] above 10000 nM. The IC50 was 300 nM in data set [2] (setting [14]); 150 nM in data set [2] (setting [15]); 152 nM in data set [2] (read-out: Pb-Luc IC50, Figure 4a, stereoisomers tested in dose response); below 1000 nM in data set [2] (read-out: Pb-Luc IC50, Figure 4a, stereoisomers tested in dose response, listed as BRD0326 SSS); above 10000 nM in [3]. Also, the erythrocytic-stage activity result in data set [3] (in words) is on record as “no erythrocytic-stage activity”. Besides, in data set [4], the “activity in a DHODH assay” value is “inactive”.

As for `CCCNC(=O)N1[C@H](C#N)[C@H](c2ccc(C#Cc3cccc(F)c3)cc2)[C@H]1CO` [BRD7539], the IC50 was found to be 2 nM in data set [2] (setting [15]); 2 nM in data set [2] (read-out: Pb-Luc IC50, Figure 4a, stereoisomers tested in dose response, listed as BRD9781/7539 series SSS); 10 nM in data set [3].

`CCCNC(=O)N1[C@H](CO)[C@H](c2ccc(C#Cc3cccc(F)c3)cc2)[C@@H]1C#N` [BRD9781]: the IC50 turned out to be 80 nM in data set [2] (setting [14]); 40 nM in data set [2] (setting [15]); 39 nM in data set [2] (read-out: Pb-Luc IC50, Figure 4a, stereoisomers tested in dose response, listed as BRD9781/7539 series SRR); 8550 nM in data set [3]. For the same compound, in data set [4], the “activity in a DHODH assay” value was “inactive”.

As for `O=C(Nc1cccc(F)c1)N1CCCCN2[C@H](CO)[C@@H](c3ccc(C#Cc4cccnc4)cc3)[C@@H]2C1` [BRD47390], the CC50 in data set [1] is above 10000 nM. Moreover, the values for the IC50 in data set [2] (setting [14]), in data set [2] (setting [15]) and in data set [3] were 360 nM, 230 nM and 2580 nM, respectively.

Turning to `Brc1ccc(Nc2nc3ccccc3nc2Nc2ccc(Br)cc2)cc1` [MMV007224], the cytotoxicity at 50 µM in [5] (setting [16]) was determined as 100%. Besides, the values for the IC50 in data set [5] and in data set [8] were 1940 nM and 170 nM, respectively. The inhibition at 50 µM in [5] (HepG2, read-out: Tox max inhibition (%) @ 50 uM) is 99%; in [8] (setting [19]) it was 103%; in data set [8] (setting [20]), 103%; in data set [8] (read-out: PbLuc max inhibition (%) @ 50 uM), 101%. Besides, the “pharmacokinetic exposure in vivo” value in [6] was “any pharmacokinetic exposure in vivo”. The inhibition at 0.1 µM in data set [7] (setting [17]) amounted to 23%; in [7] (setting [18]), 30%. The figures for the inhibition at 1 µM in data set [7] (setting [17]) and in data set [7] (setting [18]) were 43% and 20%, respectively. Besides, the inhibition at 10 µM amounted to 96% in data set [7] (setting [17]) and 67% in data set [7] (setting [18]). Further, the “activity against small or large forms” value in data set [7] (at 10 μM, in words) is “moderate activity”.

`COc1cccc(C=Cc2nc(=O)c3ccccc3o2)c1OC` [MMV666693]: the IC50 in data set [9] (Huh-7.5.1, read-out: Pb-Luc IC50, Treatment: 1) stood at 172 nM; in data set [9] (Huh-7.5.1, read-out: Pb-Luc IC50, Treatment: 2), 20 nM; in [9] (Huh-7.5.1, read-out: Pb-Luc IC50, Treatment: 3), 297 nM; in [9] (Huh-7.5.1, read-out: Pb-Luc IC50, Treatment: 4), 15 nM; in data set [9] (Huh-7.5.1, read-out: Pb-Luc IC50, Treatment: 5) it was 16 nM; in data set [9] (Huh-7.5.1, read-out: Pb-Luc IC50, Treatment: 6), 12 nM. Also, the IC50 in [5] is above 10000 nM; in data set [8], 9.82 nM; in data set [11] it was below 100 nM; in data set [13], 5330 nM. Also, in data set [10], the “cytotoxicity in Huh7.5.1 cells” value is on record as “slight cytotoxicity”. The cytotoxicity at 50 µM in data set [5] (setting [16]) was -0.938%; in data set [5] (HepG2, read-out: HepG2 Tox% @ 50 uM rep2) it was 7%. Moreover, the inhibition at 10 µM in data set [5] (HepG2, read-out: Tox max inhibition (%) @ 10 uM) amounted to 123%; in data set [7] (setting [17]), 15%; in [7] (setting [18]), 30%; in data set [8] (read-out: PbLuc max inhibition (%) @ 10 uM), 108%. Besides, the inhibition at 0.1 µM in data set [7] (setting [17]) stood at 22%; in data set [7] (setting [18]) it was 29%. The inhibition at 1 µM in data set [7] (setting [17]) was -3%; in data set [7] (setting [18]), 16%. Besides, the figures for the inhibition at 50 µM in data set [8] (setting [19]) and in data set [8] (setting [20]) were 102% and 103%, respectively. The “effect on sporozoite invasion” value in [12] was “not affected”. In addition, the “effect on sporozoite traversal of hepatocytes” value in data set [12] is on record as “slight effect”. Moreover, in [13] (read-out: LucInhib max inhibition), the Emax worked out at 89%.
